Where two headings read alike, the source gives them in different places.
Legend:
[1] = target: ACE-2: SARS-CoV-2 Spike (RBD) (Homo sapiens, UniProt Q9BYF1); assay: ACE-2: Spike RBD (SARS-CoV-2) inhibitor screening colorimetric assay; assay type: binding, human; SARS-CoV-2; details: in vitro colorimetric kit; mean ± SD; read-out: IC50, ACE2 spike RBD (SARS-CoV-2) inhibitory effect
[2] = tested on: Human lung microvascular endothelial cells (HLMEC); assay: MTT cell viability assay in HLMEC; assay type: cell-based; details: 48 h, read-out: IC50, viability of HLMEC
Description: Human lung microvascular endothelial cells (HLMEC) were acquired from Lonza (Hayward, CA, USA). The cells were seeded in an endothelial cell growth medium (EGM-2 MV) (Lonza, Hayward, CA, USA) at 37°C and 5% CO2. Then, at 5 to 7 passages, the cells were plated in 100 μL/well EGM-2 MV medium in collagen-covered 96-well plates. The cells were grown for 3–5 days to reach the confluent layer. Cell viability was valued by the MTT Cell Growth Assay Kit (Sigma-Aldrich, Steinheim, Germany) using untreated cells as control.
(§1) An experimental model of HLMEC was applied to study the effects of the endophytic compounds 1–4 on ACE-2 protein expression. Preceding this analysis, the cytotoxic effect of compounds 1–4 was determined on HLMEC using an MTT assay. HLMEC were treated with different dilutions of the test samples (0.39–100 μM) for 48 h. Compounds 1–4 being nontoxic (IC50>100 μM, Table 6).

[3] = tested on: ACE-2 protein expression in HLMEC; assay: Western blot of ACE-2 protein expression in HLMEC; assay type: cell-based, human; details: 25 μM, 48 h, western blot vs untreated cells
Description: HLMEC cells were seeded, cultured, and incubated with compounds 1–4 for 48h. RIPA buffer (Cell Signaling, Danvers, MA) was employed to obtain the entire-cell protein lysates. Bradford method was used to determine the concentration of protein. Western blot assay was done as previously stated using untreated cells as control. Anti-ACE-2 antibody [EPR24705-45] ab272500 (Abcam, Cambridge, UK) was used.
as §1

[4] = target: T1, TNF-α: TNFR2 (Homo sapiens, UniProt P01375); assay: TNFR2: TNF-α [Biotinylated] inhibitor screening assay; assay type: binding; details: in vitro kit, mean ± SD
T1 construct: purchased BPS bioscience
T1 sequence (P01375 77-233 limits assumed): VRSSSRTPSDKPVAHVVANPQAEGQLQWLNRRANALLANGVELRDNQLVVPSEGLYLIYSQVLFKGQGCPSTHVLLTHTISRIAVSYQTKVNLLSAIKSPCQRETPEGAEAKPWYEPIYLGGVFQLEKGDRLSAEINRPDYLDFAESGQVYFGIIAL
From the text: In vitro TNF-α [Biotinylated] inhibition assay. TNFR2: TNF-α [Biotinylated] inhibitor screening assay kit (BPS bioscience, Cornerstone Court W, Ste B San Diego, CA 92121) was used to screen for the in vitro inhibition of TNF-α binding to tumor necrosis factor receptor 2 (TNFR2) following the manufacturer’s protocol.

[5] = tested on: TNF-α mRNA in LPS-stimulated RAW 264.7 macrophages; assay: TNF-α gene expression (qRT-PCR) in LPS-induced RAW 264.7 cells; assay type: cell-based; details: LPS (1 μg/mL)-stimulated RAW 264.7, sub IC50 concentration, relative to LPS control, referenced to Actb
Description: (§2) Evaluation of pro-inflammatory cytokines (TNF- α and IL-6) using LPS-induced RAW 264.7 cells. RAW 264.7 macrophage cells were procured from the American Type Culture Collection (Manassas, VA, USA) and grown as previously described. In vitro Toxicology Assay Kit, MTT Based (Sigma-Aldrich, Saint Louis, Missouri, USA) was employed to establish cell viability at concentrations (1–250 μM). Treatment of RAW 264.7 cells and determination of the inhibitory effect of the active compounds at sub IC50 values on TNF- α and IL-6 gene expression in RAW264.7 cells were performed as mentioned before using LPs treated cells as control.

[6] = tested on: IL-6 mRNA in LPS-stimulated RAW 264.7 macrophages; assay: IL-6 gene expression (qRT-PCR) in LPS-induced RAW 264.7 cells; assay type: cell-based; details: LPS (1 μg/mL)-stimulated RAW 264.7, sub IC50 concentration, relative to LPS control, referenced to Actb
Description: as §2

[7] = Solubility observation of the isolated compound; assay type: physicochemical; details: observation on the isolated oil
From the text: In addition, there were complex multiplet overlapping signals for several hydrogen protons characteristic for different methylene groups laying in the same chemical environment (H- 5’/5’’, H-6’/6’’, H-11’/11’’ and 12’/12’’). […] In addition to two carbonyl carbons, one of which (C-1’/1’’ δC 167.7) is upfield due to its attachment to the aromatic ring while the other is downfield (C-9’/9’’, δC 174.0). The downfield shift of the two-methylene groups 3’/3’’ (δC, 68.2) and 7’/7’’ (δC 66.7) confirm their attachment to O-C = O. Moreover, the structure contained only one methine group at δC 38.7 (CH- 4’/4’’) and two methyl groups CH3-13’/13’’ and 14’/14’’ at δC 10.9 and 14.0, respectively. Furthermore, there were another five CH2 groups at δC 30.4, 23.7, 34.4, 25.0, and 29.1 for C-5’, 6’, 10’,11’, and 12’, respectively. H-H-COSY (Fig 1) established the correlation between the aromatic ring’s protons and that between the side chains’ protons. Additionally, HMBC data (Fig 1) confirmed the substitution of the aromatic ring through the correlation from H-2/5 ([…]) to C-3/4 (δC 130.9) and that between H-3/4 (δC 7.54) and C-2/5 (δC 128.8). The connectivity of the side chain to the aromatic ring at C-1 and C-6 was established through the correlation from H-2/5 (δH 7.72) to C-1`/1” (δC 167.7). […]

[8] = read-out: IC50, TNF-α: TNFR2 inhibitory effect

Sequence of ACE-2: SARS-CoV-2 Spike (RBD) (Q9BYF1 18-740): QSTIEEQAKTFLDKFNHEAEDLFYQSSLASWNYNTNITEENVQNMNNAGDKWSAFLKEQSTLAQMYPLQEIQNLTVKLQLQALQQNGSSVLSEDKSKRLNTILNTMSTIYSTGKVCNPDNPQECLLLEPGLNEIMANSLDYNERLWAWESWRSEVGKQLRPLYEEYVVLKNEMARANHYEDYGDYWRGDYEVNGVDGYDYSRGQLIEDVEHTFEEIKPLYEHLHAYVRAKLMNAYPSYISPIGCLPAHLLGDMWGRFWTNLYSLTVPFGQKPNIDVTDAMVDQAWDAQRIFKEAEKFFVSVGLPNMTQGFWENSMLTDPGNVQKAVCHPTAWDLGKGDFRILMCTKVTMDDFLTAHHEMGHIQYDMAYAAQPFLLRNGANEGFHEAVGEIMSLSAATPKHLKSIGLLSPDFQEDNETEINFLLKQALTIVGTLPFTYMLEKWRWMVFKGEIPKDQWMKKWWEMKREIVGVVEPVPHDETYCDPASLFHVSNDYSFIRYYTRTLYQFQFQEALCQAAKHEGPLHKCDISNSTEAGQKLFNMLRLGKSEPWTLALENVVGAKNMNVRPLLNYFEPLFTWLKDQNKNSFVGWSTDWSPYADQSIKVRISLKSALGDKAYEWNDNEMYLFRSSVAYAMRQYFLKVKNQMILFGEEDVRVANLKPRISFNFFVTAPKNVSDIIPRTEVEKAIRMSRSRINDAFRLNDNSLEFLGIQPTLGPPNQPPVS

SMILES: CC1CCC2C(C1)c1ccccc1C1CCCCC(C)N12 (centres unmarked) [Compound 1, altenuline]
- IC50 [1]: 15.5 ± 0.45 µM
- IC50 [2]: > 100 µM
- ACE2% inhibition (ACE2 protein expression) [3]: 49.65 ± 3.06 %
- IC50 [4, 8]: 8.7 ± 0.34 µM

SMILES: CCCCC(=O)OCCCC(C)COC(=O)c1ccccc1C(=O)OCC(C)CCCOC(=O)CCCC (centres unmarked) [Compound 2, phthalic acid bis (7’/7’’ pentyloxy) isohexyl ester]
- IC50 [1]: 10.4 ± 0.25 µM
- IC50 [2]: > 100 µM
- ACE2% inhibition (ACE2 protein expression) [3]: 70.51± 4.80%
- IC50 [4, 8]: 5.4 ± 0.33 µM
- TNF-α mRNA expression fold change [5]: 0.45 ± 0.07
- IL-6 mRNA expression fold change [6]: 0.30 ± 0.02
- solubility in water [7]: insoluble in water

SMILES: COc1cc(O)c2c(=O)oc3c(c2c1)C(C)CC3=O (centres unmarked) [Compound 3, 1-deoxyrubralactone]
- IC50 [1]: 12.5 ± 0.46 µM
- IC50 [2]: > 100 µM
- ACE2% inhibition (ACE2 protein expression) [3]: 29.91 ± 4.26 %

SMILES: COc1cc(O)c2c(=O)oc3cc(O)cc(C)c3c2c1 [Compound 4, alternariol-5-O-methyl ether]
- IC50 [1]: 11.7 ± 0.34 µM
- IC50 [2]: > 100 µM
- ACE2% inhibition (ACE2 protein expression) [3]: 50.85 ± 4.34%
- IC50 ([4]; IC50, TNF-α: TNFR2 inhibitory effect): 4.97 ± 0.28 µM
- TNF-α mRNA expression fold change [5]: 0.28 ± 0.02
- IL-6 mRNA expression fold change [6]: 0.14 ± 0.01

— paper PMC11760621, “Secondary metabolites of Alternaria alternate appraisal of their SARS-CoV-2 inhibitory and anti-inflammatory potentials” (PLOS ONE, 2025)
